We go through one molecule from patent publication US20210207099A1, “METHODS AND COMPOSITIONS FOR GENERATING CELLS OF ENDODERMAL LINEAGE AND BETA CELLS AND USES THEREOF” (priority 2018, published 2021).

Each structure is given as a SMILES string.

For this test, the system named is plated pancreatic progenitors. Kind of test: Latrunculin A at different stages of SC-β cell differentiation of plated pancreatic progenitors (flow cytometry, GSIS, insulin content, qRT-PCR). In kind it is cell-based, human. The text has this: For experiments investigating the effects of plating pancreatic progenitors, cells were differentiated with the suspension protocol for stages 1-3. At the end of stage 3, clusters were single cell dispersed with TrypLE and plated onto tissue culture plates coated with various ECM proteins at 0.625×10^6 cells/cm^2. Differentiation media for the remainder of this hybrid protocol were the same as for the suspension protocol with the exception that Y-27632 and Activin A were omitted on days 2-5 of stage 4. […] A variety of ECM coatings were initially tested with this plating methodology, including collagen I (Corning, 354249), collagen IV (Corning, 354245), fibronectin (Gibco, 33016-015), vitronectin (Gibco, A14700), matrigel (Corning, 356230), gelatin (Fisher, G7-500), and laminins 111, 121, 211, 221, 411, 421, 511, and 521 (Biolamina, LNKT-0201). All subsequent experiments with this hybrid protocol were performed on collagen I.
RNA was extracted from either whole clusters or cells directly on the plate with the RNeasy Mini Kit (Qiagen, 74016). Samples were treated with a DNAse kit (Qiagen, 79254) during extraction. The High Capacity cDNA Reverse Transcriptase Kit (Applied Biosystems, 4368814) was used to synthesize cDNA on a thermocycler (Applied Biosystems, A37028). The PowerUp SYBR Green Master Mix (Applied Biosystems, A25741) was used on a StepOnePlus (Applied Biosystems), and real time PCR results were analyzed using a ΔΔCt methodology. TBP and GUSB were both used as housekeeping genes. Primer sequences were as follows.
Cells were single-cell dispersed with TrypLE and fixed with 4% PFA for 30 minutes. Cells were then washed with PBS and incubated with ICC solution for 45 minutes at room temperature, incubated with primary antibodies overnight at 4° C., and incubated with secondary antibodies for 2 hours at room temperature. Cells were then washed twice with ICC solution and filtered before running on the LSRII flow cytometer (BD Biosciences). Analysis was completed with FlowJo.
Static GSIS: To assess the function of cells produced by the hybrid protocol, static GSIS was performed with cells still attached to 96 or 24-well tissue culture plates. To assess function of clusters generated with the planar protocol, approximately 30 clusters were collected and placed in tissue culture transwell inserts (MilliporeSigma, PIXP01250) in a 24-well plate. […] Cells were first incubated in a 2 mM glucose KRB solution at 37° C. for one hour, after which this solution was discarded and replaced with fresh 2 mM glucose KRB. After an additional hour, the supernatant was collected. 20 mM glucose KRB was added for the next hour, after which the supernatant was again collected. Cells were washed with fresh KRB during each solution change. Cells were then single-cell dispersed with TrypLE and counted with the Vi-Cell XR (Beckman Coulter). Supernatants from the low and high glucose challenges were quantified with a human insulin ELISA (ALPCO, 80-INSHU-E10.1), and cell counts were used to normalize insulin secretion.
Whole SC-β cell clusters or cells attached to culture plates were washed twice thoroughly with PBS. Half of the clusters or an equivalent well of plated cells were immersed in TrypLE for cell counts on the Vi-Cell XR. For the other half of the samples, a solution of 1.5% HCl and 70% ethanol was added to either the clusters in eppendorf tubes or directly onto plated cells. After 15 minutes, the plated cells were pipetted vigorously and transferred to eppendorf tubes. The eppendorf tubes from both clusters and plated cells were kept at −20° C. for 72 hours, vortexing vigorously every 24 hours. Samples were then centrifuged at 2100 RCF for 15 minutes. […] Proinsulin and insulin secretion were normalized to the viable cell counts.
A general note: A flow cytometer gives signals particle by particle.

The mark [1] stands for this setting: 24 hour 1 μM treatment, stage 5.

For the molecule `C/C1=C/C(=O)O[C@@H]2C[C@@H](CC[C@H](C)/C=C\C=C\CC1)O[C@@](O)([C@@H]1CSC(=O)N1)C2` [latrunculin A], the “endocrine induction, SC-β cell specification and GSIS” value (0.5 μM added during stage 5) was “greatest increase in endocrine induction, SC-β cell specification, and glucose-stimulated insulin secretion (GSIS)”. Moreover, for the setting “0.5 μM throughout either stage 4 or stage 6”, the “endocrine induction and β-cell specification” value was “increased both general endocrine induction (CHGA+) and β-cell specification (NKX6-1+/c-peptide+)”. Where the note is “1 μM during the first 24 hours of stage 5”, the “GSIS, optimization of duration and concentration during stage 5” value was “most benefit at the shortest and lowest dose”. In addition, under setting [1], the “expression of endocrine genes” value is reported as “increased expression of endocrine genes”, the “expression of markers associated with other endodermal lineages” value is recorded as “reduced”, the pro-insulin/insulin ratio result is listed as “improved pro-insulin/insulin ratio” and the total insulin content result is “increased total insulin content”.
